Bridge positions count the residues as written; N and C are the ends. Ends that are not written are not given here.
What was measured:
[1] = doses up to 15 μg/kg, healthy volunteers; cited from earlier work
[2] = in vivo; cited from earlier work
Crl:CD1(ICR) mice = experiment: Evaluation of cardiovascular effects in the conscious telemetered mouse (subcutaneous administration); format: in vivo
Method: Male Crl:CD1(ICR) mice (age range 8-13 weeks and body weight range 27.3-35.6 g at start of dosing) were surgically implanted with a TA11PA-C10 telemetry transmitter (Data Sciences International (DSI)) in the carotid artery. The body of the transmitter was placed subcutaneously in the lateral flank of the mouse. The mice were dosed subcutaneously in a latin square crossover design with at least 72 hours between dosing occasions. […] At least four mice were included at each dose level. Blood pressure (systolic (SAP), diastolic (DAP) and mean (MAP) and heart rate (HR, derived from blood pressure), were recorded using a digital data capture system linked with a DSI™ Ponemah data acquisition and analysis system. The capture system allowed recording of the cardiovascular parameters whilst the mice were in individual cages. On the day of each test session the animals were weighed and a predose recording was performed for at least 60 min prior to dosing. Each mouse was returned to the home cage and the cardiovascular parameters were recorded for approximately 48 hours postdose. Blood pressure and HR were reported at the following time points: −30, −20, −10, 5, 15 and 30 min postdose and 1, 2, 6, 12, 18, 24, 30, 36, 42 and 48 hours postdose. Each time point was presented as the average value of five minute's recording prior to the time point. The monitoring period was selected to cover exposure to the test items both prior to and after Tnax.

Molecule	blood pressure effect [1]	half-life [2] [min]	MAP predose (mean±SD) (Crl:CD1(ICR) mice; predose, n = 4) [mmHg]	heart rate (HR) (Crl:CD1(ICR) mice; sc, 800 μg CNP-38 eq/kg, up to 48 hours postdose)	MAP 5 min post dose (mean±SD) (Crl:CD1(ICR) mice; sc, 800 μg CNP-38 eq/kg, n = 4) [mmHg]	MAP 15 min post dose (mean±SD) (Crl:CD1(ICR) mice; sc, 800 μg CNP-38 eq/kg, n = 4) [mmHg]	MAP 30 min post dose (mean±SD) (Crl:CD1(ICR) mice; sc, 800 μg CNP-38 eq/kg, n = 4) [mmHg]
BMN-111: modified recombinant human C-type Natriuretic Peptide; 17 amino acids added to form a 39 amino acid CNP analog (PGQEHPNARKYKGANKKGLSKGCFGLKLDRIGSMSGLGC; disulfide 23-39; chains of the INN, looked up)	mild hypotension	20					
CC[C@H](C)[C@@H]1NC(=O)[C@H](CCCNC(=N)N)NC(=O)[C@H](CC(=O)O)NC(=O)[C@H](CC(C)C)NC(=O)[C@H](CCCCN)NC(=O)[C@H](CC(C)C)NC(=O)CNC(=O)[C@H](Cc2ccccc2)NC(=O)[C@@H](NC(=O)CNC(=O)[C@H](CCCCN)NC(=O)[C@H](CO)NC(=O)[C@H](CC(C)C)NC(=O)CNC(=O)[C@H](CCCCN)NC(=O)[C@H](CCCCN)NC(=O)[C@H](CC(N)=O)NC(=O)[C@H](C)NC(=O)CNC(=O)[C@H](CCCCN)NC(=O)[C@H](Cc2ccc(O)cc2)NC(=O)[C@H](CCCCN)NC(=O)[C@H](CCCNC(=N)N)NC(=O)[C@H](C)NC(=O)[C@H](CC(N)=O)NC(=O)[C@@H]2CCCN2C(=O)[C@H](Cc2c[nH]cn2)NC(=O)[C@H](CCC(=O)O)NC(=O)[C@H](CCC(N)=O)NC(=O)[C@@H](N)CC(C)C)CSSC[C@@H](C(=O)O)NC(=O)CNC(=O)[C@H](CC(C)C)NC(=O)CNC(=O)[C@H](CO)NC(=O)[C@H](CCSC)NC(=O)[C@H](CO)NC(=O)CNC1=O [CNP-38]			106.8 ± 13.4	not impacted	102.0 ± 7.5	89.5 ± 29.4	99.5 ± 25.2
